Literature values as cited in PMC9762682, “Tocotrienols: Exciting Biological and Pharmacological Properties of Tocotrienols and Naturally Occurring Compounds, Part II” (Annals of clinical case reports, 2022).

Tests used:
Breast cancer cells = tested on: Breast cancer cells; parameters: method as in PMID 29606130; value at effective dose: unit not given here;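 for IC50: anti-proliferation of cancer cells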
TNF-α = conditions: LPS-induced macrophages of wild type (C57BL/6) control group
[1] = tested on: hypercholesterolemic subjects
Prostate cancer cells = tested on: Prostate cancer cells; parameters: method as in PMID 29606130; value at effective dose: scale not given here;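 for IC50: anti-proliferation of cancer cells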
[2] = tested on: plasma TNF-α, IL-2, IL-4, IL-6, IL-8, IL-10; parameters: method as in earlier work; conditions: 250 mg/d + AHA Step-1 diet; baseline = 100
Hela cells = tested on: Hela cells; parameters: method as in PMID 29606130; value at effective dose: unit not given here;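 for IC50: anti-proliferation of cancer cells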
Lung cancer cells = tested on: Lung cancer cells; parameters: method as in PMID 29606130; value at effective dose: unit not given here
[3] = tested on: cytokines, adiponectin, TGF-β1, leptin; parameters: method as in ref 14 = [14]; PMID 27493840; doi:10.4172/2155-9880.1000434; 14. Qureshi AA , Khan DA , Saleem S , Silswal N , Trias AM , Tan B , Pharmacokinetics and bioavailability of Annatto δ-tocotrienol in healthy fed subjects . J Clin Exp Cardiol . 2015; 6 : 11 . 10.417; conditions: δ-tocotrienol treatment, pharmacokinetic study
[4] = tested on: plasma total mRNAs gene expression; parameters: method as in PMID 30031388
[5] = tested on: gene expression of TNF-α, IL-2, IL-4, IL-6, IL-8, IL-10; parameters: method as in earlier work; conditions: 250 mg/d + AHA Step-1 diet; baseline = 100
[6] = serum, two capsules/d for 24-weeks
[7] = hepatitis C patients, plasma total mRNAs, pre-dose vs post-dose

For `CC(C)=CCC/C(C)=C/CC/C(C)=C/CC[C@]1(C)CCc2cc(O)cc(C)c2O1` [δ-Tocotrienol], the IC50 (Breast cancer cells) is listed as 10 µM, the effective dose (Breast cancer cells) is listed as 20 µM and the “percentage of control at IC50 dose” value (Breast cancer cells) is listed as 49%. The “percentage of control at effective dose” value (Breast cancer cells) was 56%, the “value at effective dose” value (Breast cancer cells) was 10.7 ± 0.6 and the “effect on secretion of TNF-α” value (TNF-α) was “inhibition”. For the same molecule, the “reduction of LDL-cholesterol (maximum effect)” value ([1]; 250 mg/d + AHA Step-1 diet) was 18%, the “reduction of total cholesterol (maximum effect)” value ([1]; 250 mg/d + AHA Step-1 diet) was 15% and the “reduction of triglycerides (maximum effect)” value ([1]; 250 mg/d + AHA Step-1 diet) was 14%. For the same molecule, the “effect on HDL-cholesterol” value ([1]; 125-750 mg/d + AHA Step-1 diet) was “without affecting”, the “levels of lipid parameters” value ([1]; above 500 mg/d dose + AHA Step-1 diet) was “induction” and the IC50 (Prostate cancer cells) was 10 µM. The “percentage of control at IC50 dose” value (Prostate cancer cells) was 39%, the effective dose (Prostate cancer cells; 48 h) was 20 µM and the “percentage of control at effective dose” value (Prostate cancer cells; 48 h) was 35%. The “value at effective dose” value (Prostate cancer cells; 48 h) was 12.3 ± 1.5, the “plasma IL-2” value [2] was 55.5 ± 0.71 and the “plasma IL-4” value [2] was 49.0 ± 1.41. For the same molecule, the “plasma IL-6” value [2] was 38.5 ± 2.21, the “plasma IL-8” value [2] was 43.5 ± 0.71 and the “plasma IL-10” value [2] was 63.5 ± 2.12. For the same molecule, the “plasma TNF-α” value [2] was 48.5 ± 0.7, the IC50 (Hela cells) was 5 µM and the “percentage of control at IC50 dose” value (Hela cells) was 45%. For the same molecule, the effective dose (Hela cells; 48 h) was 20 µM, the “percentage of control at effective dose” value (Hela cells; 48 h) was 18% and the “value at effective dose” value (Hela cells; 48 h) was 8.3 ± 2.1. The IC50 (Lung cancer cells) was 20 µM, the effective dose (Lung cancer cells) was 20 µM and the “percentage of control at IC50 dose” value (Lung cancer cells) was 11%. For the same molecule, the “percentage of control at effective dose” value (Lung cancer cells) was 11%, the “value at effective dose” value (Lung cancer cells) was 8.3 ± 2.1 and the “adiponectin, TGF-β1, and leptin” value [3] was “up-regulation”. For the same molecule, the eight cytokines [3] was “down-regulation”, the “Fasting Glucose, Post-dose, percentage of control (pre-dose) in parentheses” value (people with T2DM; [6]) was 93% and the “MDA, Post-dose” value (people with T2DM; [6]) was 3.22 µmol/L. For the same molecule, the “MDA, Post-dose, percentage of control (pre-dose) in parentheses” value (people with T2DM; [6]) was 89%, the “hs-CRP, Post-dose” value (people with T2DM; [6]) was 3.10 mg/L and the “hs-CRP, Post-dose, percentage of control (pre-dose) in parentheses” value (people with T2DM; [6]) was 88%. For the same molecule, the “Fasting Glucose, Post-dose” value (people with T2DM; serum, two capsules/d for 24-weeks (δ-tocotrienol 250 mg, vitamin D3 5000 IU, resveratrol 250 mg per capsule)) was 6.85 mmol/L, the “Fasting HbA1c, Post-dose” value (people with T2DM; two capsules/d for 24-weeks) was 7.79% and the “Fasting HbA1c, Post-dose, percentage of control (pre-dose) in parentheses” value (people with T2DM; two capsules/d for 24-weeks) was 92%. For the same molecule, the “HOMA-IR, Post-dose” value (people with T2DM; two capsules/d for 24-weeks) was 4.51, the “HOMA-IR, Post-dose, percentage of control (pre-dose) in parentheses” value (people with T2DM; two capsules/d for 24-weeks) was 86% and the “side effects in hepatitis C patients” value ([4]; chronic hepatitis C patients) was “without any side-effect”. For the same molecule, the “Expr. Fold Change: AKR1D1” value [4, 7] was 14.056, the “Expr. Fold Change: APOBEC3A” value [4, 7] was −8.163 and the “Expr. Fold Change: ATF4” value [4, 7] was −9.515. For the same molecule, the “Expr. Fold Change: ATG3” value [4, 7] was −8.376, the “Expr. Fold Change: ATP1A1” value [4, 7] was −8.014 and the “Expr. Fold Change: CERS3” value [4, 7] was 19.082. The “Expr. Fold Change: COX14” value [4, 7] was −9.447, the “Expr. Fold Change: CREB1” value [4, 7] was −8.452 and the “Expr. Fold Change: CXCR2” value [4, 7] was −8.208. The “Expr. Fold Change: CYB5R4” value [4, 7] was −8.367, the “Expr. Fold Change: CYP2R1” value [4, 7] was −8.682 and the “Expr. Fold Change: FRS2” value [4, 7] was −9.962. The “Expr. Fold Change: GPR65” value [4, 7] was −9.054, the “Expr. Fold Change: GPS2” value [4, 7] was −9.56 and the “Expr. Fold Change: GTPBP8” value [4, 7] was −10.19. The “Expr. Fold Change: GYS1” value [4, 7] was −9.027, the “Expr. Fold Change: HBG1” value [4, 7] was 17.945 and the “Expr. Fold Change: HBG2” value [4, 7] was 11.413. For the same molecule, the “Expr. Fold Change: HHIPL2” value [4, 7] was 28.710, the “Expr. Fold Change: HIST1H2AD” value [4, 7] was 1804955.068 and the “Expr. Fold Change: HSP90AB1” value [4, 7] was −8.049. For the same molecule, the “Expr. Fold Change: HSPA14” value [4, 7] was −10.978, the “Expr. Fold Change: ID2” value [4, 7] was −14.133 and the “Expr. Fold Change: IFNGR2” value [4, 7] was −13.844. For the same molecule, the “Expr. Fold Change: IGF2R” value [4, 7] was −8.68, the “Expr. Fold Change: IGSF6” value [4, 7] was −8.712 and the “Expr. Fold Change: IL2RG” value [4, 7] was −16.787. The “Expr. Fold Change: IL16” value [4, 7] was −8.239, the “Expr. Fold Change: IL27RA” value [4, 7] was −12.004 and the “Expr. Fold Change: ILF2” value [4, 7] was −9.105. The “Expr. Fold Change: IRF2” value [4, 7] was −22.655, the “Expr. Fold Change: KLRC4-KLRK1/KLRK1” value [4, 7] was −1565687.642 and the “Expr. Fold Change: MKX” value [4, 7] was 9.573. For the same molecule, the “Expr. Fold Change: MT-TQ” value [4, 7] was 14.252, the “Expr. Fold Change: NDUFA11” value [4, 7] was −8.686 and the “Expr. Fold Change: NDUFB1” value [4, 7] was −8.566. The “Expr. Fold Change: NDUFB9” value [4, 7] was −8.354, the “Expr. Fold Change: NFIL3” value [4, 7] was −9.568 and the “Expr. Fold Change: OSBPL11” value [4, 7] was −9.201. For the same molecule, the “Expr. Fold Change: P4HA3” value [4, 7] was 8.686, the “Expr. Fold Change: PDE3B” value [4, 7] was −8.568 and the “Expr. Fold Change: PECAM1” value [4, 7] was −9.552. For the same molecule, the “Expr. Fold Change: PIAS1” value [4, 7] was −9.326, the “Expr. Fold Change: PIBF1” value [4, 7] was −9.876 and the “Expr. Fold Change: PRPF18” value [4, 7] was −8.777. The “Expr. Fold Change: PSMA5” value [4, 7] was −9.31, the “Expr. Fold Change: PSMB4” value [4, 7] was −10.119 and the “Expr. Fold Change: PSMB8” value [4, 7] was −9.709. For the same molecule, the “Expr. Fold Change: PSMC3” value [4, 7] was −8.346, the “Expr. Fold Change: PTGS2” value [4, 7] was −25.841 and the “Expr. Fold Change: RAP2C” value [4, 7] was −9.792. The “Expr. Fold Change: RPP38” value [4, 7] was 24.946, the “Expr. Fold Change: RPS26” value [4, 7] was −9.456 and the “Expr. Fold Change: SCP2” value [4, 7] was −13.672. The “Expr. Fold Change: SERP1” value [4, 7] was −8.872, the “Expr. Fold Change: SFPQ” value [4, 7] was −9.469 and the “Expr. Fold Change: TLR8” value [4, 7] was −11.975. The “Expr. Fold Change: TNFAIP8” value [4, 7] was −10.974, the “Expr. Fold Change: TNFRSF1B” value [4, 7] was −8.746 and the “Expr. Fold Change: TRAF7” value [4, 7] was −9.341. The “Expr. Fold Change: TSPAN15” value [4, 7] was 11.523, the “Expr. Fold Change: TUSC2” value [4, 7] was −15.922 and the “Expr. Fold Change: UBA52” value [4, 7] was −10.176. The “Expr. Fold Change: UBE2J1” value [4, 7] was −8.874, the “Expr. Fold Change: UBE4A” value [4, 7] was −10.189 and the “Expr. Fold Change: UBP1” value [4, 7] was −9.718. The “Expr. Fold Change: USP15” value [4, 7] was −10.16, the “Expr. Fold Change: USP19” value [4, 7] was −10.713 and the “Expr. Fold Change: USP25” value [4, 7] was −9.911. The “Expr. Fold Change: VEGFA” value [4, 7] was −8.933, the “Expr. Fold Change: mir-140” value [4, 7] was −5668.259 and the “Expr. Fold Change: mir-877” value [4, 7] was −4497.07. For the same molecule, the “Expr. Fold Change: mir-1250” value [4, 7] was −4755.79, the “expression of pro-inflammatory cytokines (TNF-α, VCAM1, proteasome subunits)” value ([4]; plasma total mRNAs after δ-tocotrienol feeding to hepatitis C patients) was “significant inhibition” and the “expression of ICAM1 and IFN-γ” value ([4]; plasma total mRNAs after δ-tocotrienol feeding to hepatitis C patients, post-treatment) was “induction”. The “Gene Expression IL-2” value [5] was 91.5 ± 3.54, the “Gene Expression IL-4” value [5] was 77.5 ± 2.12 and the “Gene Expression IL-6” value [5] was 73.5 ± 0.71. The “Gene Expression IL-8” value [5] was 92.0 ± 2.83, the “Gene Expression IL-10” value [5] was 89.0 ± 1.41 and the “Gene Expression TNF-α” value [5] was 84.5 ± 0.71^a, ^**.
